In US11415579B2, “Assay for measuring a rate of reaction between a target and a ligand candidate” (Imperial College Innovations Ltd., priority 2016, dated 2022):
pKd: −log10 of the molar value.

Tests used:
Cdk2(S276C) (C177A) = target: T1, Cdk2(S276C) (C177A) (Homo sapiens, UniProt P24941, C177A/S276C); test: Kinetic thiol consumption assay with Cdk2 mutant S276C; type: binding; set-up: key to Rate enhancement, Cdk2 S276C: rate constant with Cdk2 ÷ rate constant with model thiol (fold); details: additional mutation C177A; for Rate constant with Cdk2 S276C: Protein: Cdk2, cysteine position S276C, in h^-1
T1 construct: poly-histidine; made in house; host or cells: E. coli
How it was run: (§1)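 His-tagged single-surface-cysteine Cdk2 mutants (C177A background) from E. coli, 5 μM in degassed phosphate buffer pH 8, pre-treated with immobilized TCEP beads. Fluorescence (ex/em 380/470 nm) read after 1 h at room temperature, normalized to DMSO/thiol-only control; first-order decay fits gave rate constants, divided by model-thiol rate for rate enhancement.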

Cdk2[C177A, F80C, K278C] = target: T2, Cdk2[C177A, F80C, K278C] (Homo sapiens, UniProt P24941, C177A/F80C/K278C); test: Kinetic thiol consumption assay with mutant Cdk2 as model thiol; type: binding; set-up: unit not given here; details: 500 μM ligand, 5 μM thiol, phosphate buffer pH 8
T2 construct: poly-histidine; made in house; host or cells: E. coli
How it was run: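 Model thiol: His-tagged human Cdk2 C177A/F80C/K278C (two engineered surface cysteines), E. coli-expressed, 5 μM in degassed phosphate buffer pH 8 with immobilized TCEP beads (2% v/v). Fluorescence (ex/em 380/470 nm) followed over time at room temperature, normalized to DMSO/thiol control. First-order decay fit gives rate constants.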

Cdk2(C177A, F80C) = target: T3, Cdk2(C177A, F80C) (Homo sapiens, UniProt P24941, C177A/F80C); test: Kinetic thiol consumption assay with Cdk2 mutant F80C, incl. kobs versus concentration (Kd, k2); type: binding; set-up: key to Rate enhancement, Cdk2 F80C: Cdk2 rate constant divided by model-thiol rate constant; details: for Rate enhancement, Cdk2 F80C / Rate constant with Cdk2 F80C: additional mutation C177A; for Rate constant with Cdk2 F80C: Protein: Cdk2, cysteine position F80C, in h^-1
T3 construct: poly-histidine; made in house; host or cells: E. coli
How it was run: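 His-tagged Cdk2(C177A/F80C) from E. coli or model thiol, 5 μM in degassed phosphate buffer pH 8 with TCEP beads, reacted with acrylamide ligands; fluorescence (ex/em 380/470 nm) normalized to DMSO control and fitted to first-order decay for kobs. Kd and k2 obtained from hyperbolic fit of kobs versus ligand concentration.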

Cdk2(R122C) (C177A) = target: T4, Cdk2(R122C) (C177A) (Homo sapiens, UniProt P24941, C177A/R122C); test: Kinetic thiol consumption assay with Cdk2 mutant R122C; type: binding; set-up: key to Rate enhancement, Cdk2 R122C: rate constant with Cdk2 ÷ rate constant with model thiol (fold); details: additional mutation C177A; for Rate constant with Cdk2 R122C: Protein: Cdk2, cysteine position R122C, in h-1
T4 construct: poly-histidine; made in house; host or cells: E. coli
How it was run: as §1

Cdk2(H71C) (C177A) = target: T5, Cdk2(H71C) (C177A) (Homo sapiens, UniProt P24941, C177A/H71C); test: Kinetic thiol consumption assay with Cdk2 mutant H71C; type: binding; set-up: key to Rate enhancement, Cdk2 H71C: rate constant with Cdk2 ÷ rate constant with model thiol (fold); details: additional mutation C177A; for Rate constant with Cdk2 H71C: Protein: Cdk2, cysteine position H71C, in h^-1
T5 construct: poly-histidine; made in house; host or cells: E. coli
How it was run: as §1

Cdk2(T182C) (C177A) = target: T6, Cdk2(T182C) (C177A) (Homo sapiens, UniProt P24941, C177A/T182C); test: Kinetic thiol consumption assay with Cdk2 mutant T182C; type: binding; set-up: key to Rate enhancement, Cdk2 T182C: rate constant with Cdk2 ÷ rate constant with model thiol (fold); details: additional mutation C177A; for Rate constant with Cdk2 T182C: Protein: Cdk2, cysteine position T182C, in h^-1
T6 construct: poly-histidine; made in house; host or cells: E. coli
How it was run: as §1

Cdk2(N272C) (C177A) = target: T7, Cdk2(N272C) (C177A) (Homo sapiens, UniProt P24941, C177A/N272C); test: Kinetic thiol consumption assay with Cdk2 mutant N272C; type: binding; set-up: key to Rate enhancement, Cdk2 N272: rate constant with Cdk2 ÷ rate constant with model thiol (fold); details: for Rate enhancement, Cdk2 N272: Cdk2 N272, additional mutation C177A; for Rate constant with Cdk2 N272C: Protein: Cdk2, cysteine position N272C, additional mutation C177A, in h^-1
T7 construct: poly-histidine; made in house; host or cells: E. coli
How it was run: as §1

Cdk2(S181C) (C177A) = target: T8, Cdk2(S181C) (C177A) (Homo sapiens, UniProt P24941, C177A/S181C); test: Kinetic thiol consumption assay with Cdk2 mutant S181C; type: binding; set-up: key to Rate enhancement, Cdk2 S181C: rate constant with Cdk2 ÷ rate constant with model thiol (fold); details: additional mutation C177A; for Rate constant with Cdk2 S181C: Protein: Cdk2, cysteine position S181C, in h^-1
T8 construct: poly-histidine; made in house; host or cells: E. coli
How it was run: as §1

[1] = target: T9, human cyclin-dependent kinase 2 (Cdk2) (Homo sapiens, UniProt P24941); test: Kinetic thiol consumption assay with wild type Cdk2 (C177); type: binding; set-up: key to Rate enhancement, Cdk2 WT: k(Cdk2) divided by k(model thiol); Rate constant with Cdk2 (k(Cdk2)): unit not given here; details: for Rate constant with Cdk2 (k(Cdk2)): 500 μM ligand, 5 μM thiol, phosphate buffer pH 8; for Rate enhancement, Cdk2 WT: no additional mutations; for Rate constant with Cdk2 WT: Protein: Cdk2, cysteine position WT, in h^-1; for k(Cdk2)/k(Cdk2_mut) rate enhancement: model thiol Cdk2[C177A, F80C, K278C]; for k(Cdk2)/k(GSH) rate enhancement: model thiol glutathione
T9 construct: poly-histidine; made in house; host or cells: E. coli
How it was run: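 His-tagged human Cdk2 (single surface cysteine C177), expressed in E. coli, or a model thiol at 5 μM in degassed phosphate buffer pH 8 was pre-treated with immobilized TCEP beads (2% v/v) before acrylamide addition. Fluorescence (ex/em 380/470 nm) was read after 1 h at room temperature, normalized to DMSO/thiol-only control and plotted versus time.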

[2] = Kinetic thiol consumption assay with model thiol glutathione; type: physicochemical; set-up: Rate constant with glutathione (k(GSH)): unit not given here; details: for Rate constant with glutathione (k(GSH)): 500 μM ligand, 5 μM thiol, phosphate buffer pH 8; for Rate constant with Glutathione: Protein: Glutathione, cysteine position NA, in h-1
How it was run: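 Rate constants for acrylamide reaction with 5 μM glutathione come from first-order exponential fits of normalized fluorescence decay (ex 380, em 470 nm). Reactions run in degassed phosphate buffer at pH 8 containing TCEP beads, room temperature.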

[3] = hyperbolic fit of kobs against ligand concentration

| SMILES | Rate enhancement, Cdk2 S276C (Cdk2(S276C) (C177A)) | Rate constant with Cdk2 S276C (Cdk2(S276C) (C177A)) | Rate constant with Cdk2[C177A, F80C, K278C] (k(Cdk2_mut)) (Cdk2[C177A, F80C, K278C]) | Rate enhancement, Cdk2 F80C (Cdk2(C177A, F80C)) | Rate constant with Cdk2 F80C (Cdk2(C177A, F80C)) | Rate enhancement, Cdk2 R122C (Cdk2(R122C) (C177A)) | Rate constant with Cdk2 R122C (Cdk2(R122C) (C177A)) | Rate enhancement, Cdk2 H71C (Cdk2(H71C) (C177A)) | Rate enhancement, Cdk2 T182C (Cdk2(T182C) (C177A)) | Rate enhancement, Cdk2 N272 (Cdk2(N272C) (C177A)) | Rate constant with Cdk2 N272C (Cdk2(N272C) (C177A)) | Rate enhancement, Cdk2 S181C (Cdk2(S181C) (C177A)) | Rate constant with Cdk2 S181C (Cdk2(S181C) (C177A)) | Rate constant with Cdk2 (k(Cdk2)) [1] | Rate enhancement, Cdk2 WT [1] | Rate constant with Cdk2 WT [1] | k(Cdk2)/k(Cdk2_mut) rate enhancement [1] | k(Cdk2)/k(GSH) rate enhancement [1] | Rate constant with glutathione (k(GSH)) [2] | Rate constant with Glutathione [2] | further results |
| --- | --- | --- | --- | --- | --- | --- | --- | --- | --- | --- | --- | --- | --- | --- | --- | --- | --- | --- | --- | --- | --- |
| C=CC(=O)Nc1ccc(-c2ncccn2)cc1 [CA-037] | 1.763 | 0.02673 | 0.1952 | 63.59 | 0.964 | 0.9697 | 0.0147 | 1.964 | 12.3 | 1.739 | 0.02636 | 1.495 | 0.02267 | 0.05015 | 3.308 | 0.05015 | 0.2569 | 3.293 | 0.01523 | 0.01516 | hit classification against Cdk2(F80C, C177A) (Cdk2(C177A, F80C)): hit ligands; kobs (Cdk2(C177A, F80C); [CA37] 0.02 mM): 0.00007107 min⁻¹; kobs (Cdk2(C177A, F80C); [CA37] 0.05 mM): 0.000271 min⁻¹; kobs (Cdk2(C177A, F80C); [CA37] 0.1 mM): 0.0006704 min⁻¹; kobs (Cdk2(C177A, F80C); [CA37] 0.2 mM): 0.001313 min⁻¹; kobs (Cdk2(C177A, F80C); [CA37] 0.35 mM): 0.002029 min⁻¹; kobs (Cdk2(C177A, F80C); [CA37] 0.5 mM): 0.002372 min⁻¹; kobs (Cdk2(C177A, F80C); [CA37] 1 mM): 0.004177 min⁻¹; kobs (Cdk2(C177A, F80C); [CA37] 2 mM): 0.005626 min⁻¹; pKd (Cdk2(C177A, F80C); [3]): 2.92; k2 (Cdk2(C177A, F80C); [3]): 0.009427 min⁻¹; Rate constant with Cdk2 H71C (Cdk2(H71C) (C177A)): 0.02977; Rate constant with Cdk2 T182C (Cdk2(T182C) (C177A)): 0.1865 |
| C=CC(=O)NCC1CCCN1S(=O)(=O)c1ccc(C)cc1 (stereo not shown) [CA-118] | 0.4087 | 0.002454 | 0.00415 | 0.6003 | 0.003604 | 0.3071 | 0.001844 | 0.1972 | 0 | 61.33 | 0.3682 | 4.792 | 0.02877 | 0.00698 | 1.749 | 0.0105 | 1.682 | 2.491 | 0.0028 | 0.006004 | Rate constant with Cdk2 H71C (Cdk2(H71C) (C177A)): 0.001184 |
| C=CC(=O)N1CCCCCC1c1ccc(N(C)C)cc1 (stereo not shown) [EL-1140] | 0.2024 | 0.001645 | 0.00407 | 0.7204 | 0.005854 | 0.3699 | 0.003006 | 0 | 1.338 | 0.1121 | 0.0009109 | 0.6713 | 0.005455 | 0.00303 | 0.6141 | 0.00499 | 0.7455 | 0.3806 | 0.00797 | 0.008126 | Rate constant with Cdk2 T182C (Cdk2(T182C) (C177A)): 0.01087 |
| C=CC(=O)N1CCn2c(Cc3ccccc3)nnc2C1 [CA-092] | 6.528 | 0.5455 | 0.01236 | 0.1058 | 0.008842 | 2.269 | 0.1896 | 2.689 | 6.483 | 7.163 | 0.5985 | 0.9146 | 0.07642 | 0.2634 | 3.152 | 0.2634 | 21.31 | 3.224 | 0.0817 | 0.08356 | Rate constant with Cdk2 H71C (Cdk2(H71C) (C177A)): 0.2247; Rate constant with Cdk2 T182C (Cdk2(T182C) (C177A)): 0.5417; hit classification, Example 2 ([1]; significant rate enhancement against both model thiols (GSH and mutant Cdk2)): hits |
| C=CC(=O)N1CC(OCc2cccc3ccccc23)C1 [CA-203] | 3.934 | 0.05406 | 0.07903 | 4.306 | 0.05916 | 3.287 | 0.04516 | 3.672 | 13.92 | 2.758 | 0.0379 | 8.879 | 0.122 | 0.04586 | 3.338 | 0.04586 | 0.5803 | 3.318 | 0.01382 | 0.01374 | Rate constant with Cdk2 H71C (Cdk2(H71C) (C177A)): 0.05046; Rate constant with Cdk2 T182C (Cdk2(T182C) (C177A)): 0.1913 |
| C=CC(=O)N1CCC2(CCCCCC2)C1 [CA-093] | 1.327 | 0.0176 | 0.00507 | 1.271 | 0.01686 | 0.311 | 0.004124 | 0.5753 | 4.072 | 0.4207 | 0.005578 | 0.776 | 0.01029 | 0.00196 | 0.2573 | 0.003412 | 0.3873 | 0.2651 | 0.0074 | 0.01326 | Rate constant with Cdk2 H71C (Cdk2(H71C) (C177A)): 0.007628; Rate constant with Cdk2 T182C (Cdk2(T182C) (C177A)): 0.05399 |
